Assay: Storage stability of MMAM in an aqueous hydrogen peroxide composition with the surfactant under test
Format: physicochemical
Conditions: 2 weight % Dowanol PnB added to the compositions of Example 1
Method: In this example, a number of surfactants were tested for their ability to stabilise methyl morpholinium acetonitrile methylsulphate (MMAM) in the presence of hydrogen peroxide.
The surfactant under test was added to an aqueous composition containing 1 weight % H2O2 and 1.1 weight % MMAM (1.7 weight % Sokalan BM) The active amount of surfactant in the composition was 1 weight %. In a control sample, no surfactant was added.

CCCCOCC(C)O (stereo not shown) [Dowanol PnB, n-butyl monoether of propylene glycol]
effect of solvent on stability: did not have a significant effect on stability

Reference: patent EP1678287B1, “DISPENSER CONTAINING LIQUID BLEACHING COMPOSITION” (Reckitt Benckiser (UK) Limited, priority 2003, dated 2005)
